These results are taken from ChEMBL document CHEMBL1141342, “Cytotoxic C47-polyacetylene carboxylic acids from a marine sponge Pertrosia sp” (J Nat Prod, 2007).

The term IC50 denotes the concentration at which inhibition is half-maximal.

The test concerns P388. Put plainly: Cytotoxicity against mouse P388 cells. The format is functional, cell-based.

Molecules are shown by their SMILES. Values after ≈ are worked out from the molar mass of the structure shown.

With `C#C[C@@H](O)/C=C/CCCCCCC#C[C@H](O)C#C/C=C/CC/C=C\CCCC/C=C\CCCCCCCCCCCCCC/C=C\C#CC(=O)O` [PETROFORMYNIC ACID B], 0.4 µg/mL (≈ 0.574 µM) corresponded to half-maximal inhibition (IC50). Take `C#C[C@@H](O)/C=C/CCCCCCC#C[C@H](O)C#C/C=C/CC/C=C\CCCC/C=C\CCCCCCCCCCCCCCCCC#CC(=O)O` [PETROFORMYNIC ACID C]: half-maximal inhibition (IC50) required 0.4 µg/mL (≈ 0.572 µM).
